In paper PMC8900257 (ACS chemical biology, 2019):
“And” between values parts separate entries of the source, which are not always exact repeats. Equal values may be shown once. Read-outs that look alike come from different tables or passages of the source.

Assays:
[1] = test system: M. tuberculosis H37Rv fructose-bisphosphate aldolase (FBA); conditions: ref PubChem Bioassay AID 588726; cited from earlier work
M. tuberculosis [2] = conditions: Table 1; nd = no detected effect; ref PubChem Bioassay AID 449762; cited from earlier work
M. tuberculosis [3] = conditions: Table 1; values deduced from ref PubChem Bioassay AID 1626; cited from earlier work
M. tuberculosis H37Rv = test: M. tuberculosis growth inhibition; assay type: cell-based, Mycobacterium tuberculosis; conditions: for MIC: Mycobacterium tuberculosis, H37RV, read-out: Mycobacterium Growth inhibition, MIC (μM) tuberculosis, Table 2, this study
NAD pool = NAD pool level in M. smegmatis, colorimetric detection kit; assay type: cell-based, Mycobacterium smegmatis
[4] = test system: non-replicating M. smegmatis; test: Cell viability by CFU assay under carbon starvation; assay type: cell-based, Mycobacterium smegmatis; conditions: Mycolicibacterium smegmatis, 96 h, read-out: colony forming unit (CFU) reduction

SMILES	Enzyme inhibition (%) at 1 μM MtFBA [1]	Mycobacterium Growth inhibition MIC (μM) tuberculosis e (M. tuberculosis [2])	other results
CCn1cc(C(=O)NC(C)C)c(=O)c2cc(F)c(N3CCN(C(=O)c4ccco4)CC3)cc21 [N1–1]	54.81%	>25 µM	–
CCC(C)NC(=O)c1cn(CC)c2cc(N3CCN(C(=O)c4ccco4)CC3)c(F)cc2c1=O (stereo not drawn) [N1–2]	54.28%	50 µM	–
CCCNC(=O)c1cn(CC)c2cc(N3CCN(C(=O)c4ccco4)CC3)c(F)cc2c1=O [N1–3]	79.9%	25 µM	–
C=CCNC(=O)c1cn(CC)c2cc(N3CCN(C(=O)c4ccco4)CC3)c(F)cc2c1=O [N1–4]	97.0%	25 µM	–
CCCCNC(=O)c1cn(CC)c2cc(N3CCN(C(=O)c4ccco4)CC3)c(F)cc2c1=O [N1–5]	22.14%	>25 µM	–
CCn1cc(C(=O)NCC(C)C)c(=O)c2cc(F)c(N3CCN(C(=O)c4ccco4)CC3)cc21 [N1–6]	11.37%	–	–
CCn1cc(C(=O)NCCC(C)C)c(=O)c2cc(F)c(N3CCN(C(=O)c4ccco4)CC3)cc21 [N1–7]	14.68%	>25 µM	–
CCn1cc(C(=O)NCc2ccccc2)c(=O)c2cc(F)c(N3CCN(C(=O)c4ccco4)CC3)cc21 [N1–10]	20% and 20.43%	25 µM	Mycobacterium Growth inhibition MIC (μM) tuberculosis d (M. tuberculosis [3]): <10 µM
CCn1cc(C(=O)NCc2cccc(F)c2)c(=O)c2cc(F)c(N3CCN(C(=O)c4ccco4)CC3)cc21 [N1–13]	40% and 38.2%	25 µM	Mycobacterium Growth inhibition MIC (μM) tuberculosis d (M. tuberculosis [3]): 12.5 µM
CCn1cc(C(=O)NCc2ccncc2)c(=O)c2cc(F)c(N3CCN(C(=O)c4ccco4)CC3)cc21 [N1–16]	41.76%	–	Mycobacterium Growth inhibition MIC (μM) tuberculosis d (M. tuberculosis [3]): >100 µM
CCn1cc(C(=O)Nc2ncccc2O)c(=O)c2cc(F)c(N3CCN(C(=O)c4ccco4)CC3)cc21 [N1–20]	14.6%	–	–
CCn1cc(C(=O)NCc2ccco2)c(=O)c2cc(F)c(N3CCN(C(=O)c4ccco4)CC3)cc21 [N1–29]	19.8%	<25 µM	Mycobacterium Growth inhibition MIC (μM) tuberculosis d (M. tuberculosis [3]): >10 µM
CCN(CC)CCNC(=O)c1cn(CC)c2cc(N3CCN(C(=O)c4ccco4)CC3)c(F)cc2c1=O [N1–30]	22.17%	–	Mycobacterium Growth inhibition MIC (μM) tuberculosis d (M. tuberculosis [3]): >100 µM
CCN(CC)CCCNC(=O)c1cn(CC)c2cc(N3CCN(C(=O)c4ccco4)CC3)c(F)cc2c1=O [N1–31]	54.21%	>25 µM	–
CC1CCC(C(C)C)C(OC(=O)Cn2c[n+](CC(=O)OC3CC(C)CCC3C(C)C)c3ccccc32)C1 (stereo not drawn) [N2–1]	–	–	MIC (M. tuberculosis H37Rv): 46.7 µM
COc1ccc(-c2n(CC(=O)OC3CC(C)CCC3C(C)C)c3ccccc3[n+]2C)cc1 (stereo not drawn) [N2–7]	–	–	NAD pool depletion (NAD pool): rapid depletion of the NAD pool
CC1CCC(C(C)C)C(OC(=O)Cn2c(COc3ccccc3)[n+](C)c3ccccc32)C1 (stereo not drawn) [N2–8]	–	–	MIC (M. tuberculosis H37Rv): 21.2 µM; log reduction at 25 µM [4]: > 2
Cc1ccccc1OCc1n(CC(=O)OC2CC(C)CCC2C(C)C)c2ccccc2[n+]1C (stereo not drawn) [N2–9]	–	–	MIC (M. tuberculosis H37Rv): 38.5 µM
Cc1ccc(OCc2n(CC(=O)OC3CC(C)CCC3C(C)C)c3ccccc3[n+]2C)cc1 (stereo not drawn) [N2–10]	–	–	MIC (M. tuberculosis H37Rv): 19.7 µM
COc1ccc(OCc2n(CC(=O)OC3CC(C)CCC3C(C)C)c3ccccc3[n+]2C)cc1 (stereo not drawn) [N2–11]	–	–	MIC (M. tuberculosis H37Rv): 28 µM; Mycobacterium Growth inhibition, MIC (μM) tuberculosis (M. tuberculosis H37Rv; Table 2, this study): 28.2 µM; NAD pool depletion (NAD pool; inhibitor at ~5× MIC added at log-phase, samples over 6 hours): rapid depletion of the NAD pool; log reduction at 25 µM [4]: ≤ 4
